Assay results as given in patent publication US3992371A, “Penicillins substituted with heterocyclic and substituted phenyl groups” (Sumitomo Chemical Company, Limited, priority 1973, dated 1976).
In brackets after ≈: the same amount, converted by molar mass. Where a name gives a salt, the structure may show the parent alone.

Tests used:
Experiment in all cases: Minimal inhibitory concentration, agar dilution method
Type in all cases: cell-based
Proteus vulgaris HV19 = system: Proteus vulgaris HV19
Proteus miravilis GN2425 = system: Proteus miravilis GN2425
[1] = system: Pseudomonas aeruginosa 104
From the text: (§1) When determined according to the agar dilution method, the penicillins (I) afford the minimal inhibitory concentrations against test microorganisms as shown in Table 2.

[2] = system: Staphylococcus aureus 209P
From the text: as §1

[3] = system: Klebsiella pneumoniae PCI602
From the text: as §1

Escherichia coli NIHJ = system: Escherichia coli NIHJ
From the text: as §1

Row | SMILES | MIC (Proteus vulgaris HV19) [µg/mL] | MIC (Proteus miravilis GN2425) [µg/mL] | MIC [1] [µg/mL] | MIC [2] [µg/mL] | MIC [3] [µg/mL] | MIC (Escherichia coli NIHJ) [µg/mL]
1 | CC1(C)SC2C(NC(=O)C(NC(=O)c3cnc4cc5c(cc4c3S)OCO5)c3cccc(N)c3)C(=O)N2C1C(=O)O (stereo not drawn) [Example 36] | 0.39 (≈ 0.655 µM) | 6.25 (≈ 10.5 µM) | 3.13 (≈ 5.25 µM) | 0.78 (≈ 1.31 µM) | 12.5 (≈ 21 µM) | 6.25 (≈ 10.5 µM)
2 | CC1(C)S[C@@H]2[C@H](NC(=O)C(C(=O)O)c3ccccc3)C(=O)N2[C@H]1C(=O)O (stereo partly drawn) [Carbenicillin, reference compound] |  |  |  |  | 200 (≈ 529 µM) | 
3 | CN(C)c1ccc2ncc(C(=O)NC(C(=O)N[C@@H]3C(=O)N4[C@@H]3SC(C)(C)[C@@H]4C(=O)O)c3cccc(N)c3)c(O)c2n1 (stereo partly drawn) [Example 22] | 0.025 (≈ 0.0431 µM) | 0.78 (≈ 1.35 µM) | 0.78 (≈ 1.35 µM) | 1.56 (≈ 2.69 µM) | 3.13 (≈ 5.4 µM) | 0.78 (≈ 1.35 µM)
4 | CC1(C)SC2C(NC(=O)C(NC(=O)c3cnc4cccnc4c3O)c3ccc(O)c(O)c3)C(=O)N2C1C(=O)O (stereo not drawn) [Example 61] | 0.025 (≈ 0.0452 µM) | 1.56 (≈ 2.82 µM) | 1.56 (≈ 2.82 µM) | 0.78 (≈ 1.41 µM) | 12.5 (≈ 22.6 µM) | 0.78 (≈ 1.41 µM)
5 | CC1(C)S[C@@H]2[C@H](NC(=O)C(NC(=O)c3cnc4cc(Cl)ccc4c3O)c3ccc(N)cc3)C(=O)N2[C@H]1C(=O)O (stereo partly drawn) [Example 17] | 0.2 (≈ 0.351 µM) | 3.13 (≈ 5.49 µM) | 3.13 (≈ 5.49 µM) | 0.78 (≈ 1.37 µM) | 6.25 (≈ 11 µM) | 3.13 (≈ 5.49 µM)
6 | CC1(C)SC2C(NC(=O)C(NC(=O)c3cnc4nc(N5CCOCC5)ncc4c3O)c3ccc(N)cc3)C(=O)N2C1C(=O)O (stereo not drawn) [Example 54] | 0.05 (≈ 0.0803 µM) | 3.13 (≈ 5.03 µM) | 3.13 (≈ 5.03 µM) | 1.56 (≈ 2.51 µM) | 6.25 (≈ 10 µM) | 3.13 (≈ 5.03 µM)
7 | Cc1ccc2c(O)c(C(=O)NC(C(=O)N[C@@H]3C(=O)N4[C@@H]3SC(C)(C)[C@@H]4C(=O)O)c3cccc(N)c3)cnc2n1 (stereo partly drawn) [Example 18] | 0.025 (≈ 0.0454 µM) | 1.56 (≈ 2.83 µM) | 1.56 (≈ 2.83 µM) | 1.56 (≈ 2.83 µM) | 6.25 (≈ 11.4 µM) | 1.56 (≈ 2.83 µM)
8 | Cc1ncc2c(O)c(C(=O)NC(C(=O)NC3C(=O)N4C3SC(C)(C)C4C(=O)O)c3cccc(N)c3)cnc2n1 (stereo not drawn) [Example 58] | 0.05 (≈ 0.0906 µM) | 3.13 (≈ 5.67 µM) | 3.13 (≈ 5.67 µM) | 1.56 (≈ 2.83 µM) | 12.5 (≈ 22.7 µM) | 1.56 (≈ 2.83 µM)
9 | CC1(C)S[C@@H]2[C@H](NC(=O)[C@H](NC(=O)c3nnc4ccccc4c3O)c3cccc(N)c3)C(=O)N2[C@H]1C(=O)O [Example 6, D-α-(4-hydroxycinnoline-3-carboxamido)-m-aminobenzylpenicillin] | 0.78 (≈ 1.45 µM) | 12.5 (≈ 23.3 µM) | 6.25 (≈ 11.6 µM) | 1.56 (≈ 2.91 µM) | 12.5 (≈ 23.3 µM) | 6.25 (≈ 11.6 µM)
10 | Cc1cc(C(NC(=O)c2cnc3cccnc3c2O)C(=O)NC2C(=O)N3C2SC(C)(C)C3C(=O)O)ccc1O (stereo not drawn) [Example 60] | 0.05 (≈ 0.0906 µM) | 1.56 (≈ 2.83 µM) | 1.56 (≈ 2.83 µM) | 0.78 (≈ 1.41 µM) | 6.25 (≈ 11.3 µM) | 0.78 (≈ 1.41 µM)
11 | Cc1ccc2c(O)c(C(=O)NC(C(=O)N[C@@H]3C(=O)N4[C@@H]3SC(C)(C)[C@@H]4C(=O)O)c3cccc(N)c3)cnc2c1 (stereo partly drawn) [Example 16] | 0.39 (≈ 0.71 µM) | 3.13 (≈ 5.69 µM) | 3.13 (≈ 5.69 µM) | 0.78 (≈ 1.42 µM) |  | 6.25 (≈ 11.4 µM)
12 | CC1(C)SC2C(NC(=O)C(NC(=O)c3cnc4cccnc4c3O)c3ccc(O)c([N+](=O)[O-])c3)C(=O)N2C1C(=O)O (stereo not drawn) [Example 62] | 0.05 (≈ 0.0858 µM) | 3.13 (≈ 5.37 µM) | 1.56 (≈ 2.68 µM) | 1.56 (≈ 2.68 µM) | 12.5 (≈ 21.5 µM) | 1.56 (≈ 2.68 µM)
13 | CC1(C)SC2C(NC(=O)C(NC(=O)c3nc4ccccc4nc3O)c3cccc(F)c3)C(=O)N2C1C(=O)O (stereo not drawn) [Example 48] | 0.2 (≈ 0.371 µM) | 12.5 (≈ 23.2 µM) | 1.56 (≈ 2.89 µM) | 0.78 (≈ 1.45 µM) | 12.5 (≈ 23.2 µM) | 3.13 (≈ 5.8 µM)
14 | CC1(C)S[C@@H]2[C@H](NC(=O)[C@H](NC(=O)c3cnc4cccnc4c3O)c3cccc(N)c3)C(=O)N2[C@H]1C(=O)O [Example 1, D-α-(4-hydroxy-1,5-naphthyridine-3-carboxamido)-m-aminobenzylpenicillin sodium salt] | 0.025 | 0.78 | 1.56 | 1.56 | 6.25 | 0.78
15 | CCn1ncc2c(O)c(C(=O)NC(C(=O)NC3C(=O)N4C3SC(C)(C)C4C(=O)O)c3ccc(N)cc3)cnc21 (stereo not drawn) [Example 59] | 0.1 (≈ 0.181 µM) | 6.25 (≈ 11.3 µM) | 1.56 (≈ 2.82 µM) | 0.78 (≈ 1.41 µM) | 12.5 (≈ 22.6 µM) | 3.13 (≈ 5.65 µM)
16 | Cc1nc(O)c2c(O)c(C(=O)NC(C(=O)NC3C(=O)N4C3SC(C)(C)C4C(=O)O)c3cccc(N)c3)cnc2n1 (stereo not drawn) [Example 56] | 0.05 (≈ 0.0881 µM) | 3.13 (≈ 5.51 µM) | 3.13 (≈ 5.51 µM) | 1.56 (≈ 2.75 µM) | 6.25 (≈ 11 µM) | 1.56 (≈ 2.75 µM)

Row | SMILES | MIC (Proteus vulgaris HV19) [µg/mL] | MIC (Proteus miravilis GN2425) [µg/mL] | MIC [1] [µg/mL] | MIC [2] [µg/mL] | MIC [3] [µg/mL] | MIC (Escherichia coli NIHJ) [µg/mL]
17 | COc1ccc([C@@H](NC(=O)c2cnc3cccnc3c2O)C(=O)N[C@@H]2C(=O)N3[C@@H]2SC(C)(C)[C@@H]3C(=O)O)cc1 [Example 4, D-α-(4-hydroxy-1,5-naphthyridine-3-carboxamido)-p-methoxybenzylpenicillin sodium salt] | 0.1 | 12.5 | 3.13 | 1.56 | 12.5 | 3.13
18 | CC1(C)S[C@@H]2[C@H](NC(=O)C(NC(=O)c3cnc4cccnc4c3O)c3cccc(I)c3)C(=O)N2[C@H]1C(=O)O (stereo partly drawn) [Example 11] | 0.05 (≈ 0.0772 µM) | 1.56 (≈ 2.41 µM) | 3.13 (≈ 4.83 µM) | 1.56 (≈ 2.41 µM) | 12.5 (≈ 19.3 µM) | 1.56 (≈ 2.41 µM)
19 | COc1ccc(C(NC(=O)c2cnc3ccccc3c2S)C(=O)NC2C(=O)N3C2SC(C)(C)C3C(=O)O)cc1 (stereo not drawn) [Example 38] | 0.39 (≈ 0.688 µM) | 6.25 (≈ 11 µM) | 3.13 (≈ 5.52 µM) | 0.78 (≈ 1.38 µM) | 12.5 (≈ 22.1 µM) | 6.25 (≈ 11 µM)
20 | CC1(C)SC2C(NC(=O)C(NC(=O)c3cnc4cccnc4c3O)c3cccc(F)c3)C(=O)N2C1C(=O)O (stereo not drawn) [Example 47] | 0.05 (≈ 0.0927 µM) | 1.56 (≈ 2.89 µM) | 1.56 (≈ 2.89 µM) | 1.56 (≈ 2.89 µM) | 12.5 (≈ 23.2 µM) | 1.56 (≈ 2.89 µM)
21 | CC1(C)S[C@@H]2[C@H](NC(=O)[C@H](NC(=O)c3cnc4cccnc4c3O)c3ccc(N)cc3)C(=O)N2[C@H]1C(=O)O [Example 2, D-α-(4-hydroxy-1,5-naphthyridine-3-carboxamido)-p-aminobenzylpenicillin sodium salt] | 0.025 | 1.56 | 1.56 | 1.56 | 12.5 | 0.78
22 | CC1(C)S[C@@H]2[C@H](NC(=O)C(NC(=O)c3cnc4cc([N+](=O)[O-])ccc4c3O)c3cccc(N)c3)C(=O)N2[C@H]1C(=O)O (stereo partly drawn) [Example 25] | 0.2 (≈ 0.344 µM) | 3.13 (≈ 5.39 µM) | 3.13 (≈ 5.39 µM) | 0.78 (≈ 1.34 µM) | 12.5 (≈ 21.5 µM) | 3.13 (≈ 5.39 µM)
23 | CC1(C)S[C@@H]2[C@H](NC(=O)C(NC(=O)c3cc4ccccc4nc3O)c3cccc(N)c3)C(=O)N2[C@H]1C(=O)O (stereo partly drawn) [Example 31] | 0.39 (≈ 0.728 µM) | 3.13 (≈ 5.84 µM) | 3.13 (≈ 5.84 µM) | 0.78 (≈ 1.46 µM) | 12.5 (≈ 23.3 µM) | 3.13 (≈ 5.84 µM)
24 | CC1(C)SC2C(NC(=O)C(NC(=O)c3cnc4scnc4c3O)c3cccc(N)c3)C(=O)N2C1C(=O)O (stereo not drawn) [Example 40] | 0.025 (≈ 0.0461 µM) | 1.56 (≈ 2.88 µM) | 1.56 (≈ 2.88 µM) | 1.56 (≈ 2.88 µM) | 6.25 (≈ 11.5 µM) | 1.56 (≈ 2.88 µM)
25 | CN(C)c1ccc([C@@H](NC(=O)c2cnc3cccnc3c2O)C(=O)N[C@@H]2C(=O)N3[C@@H]2SC(C)(C)[C@@H]3C(=O)O)cc1 [Example 5, D-α-(4-hydroxy-1,5-naphthyridine-3-carboxamido)-p-dimethylaminobenzylpenicillin sodium salt] | 0.1 | 6.25 | 1.56 | 1.56 | 6.25 | 3.13
26 | CCNc1ccc2ncc(C(=O)NC(C(=O)NC3C(=O)N4C3SC(C)(C)C4C(=O)O)c3cccc(N)c3)c(O)c2n1 (stereo not drawn) [Example 55] | 0.025 (≈ 0.0431 µM) | 0.78 (≈ 1.35 µM) | 1.56 (≈ 2.69 µM) | 1.56 (≈ 2.69 µM) | 6.25 (≈ 10.8 µM) | 0.78 (≈ 1.35 µM)
27 | Cc1nc(C)c2ncc(C(=O)NC(C(=O)NC3C(=O)N4C3SC(C)(C)C4C(=O)O)c3cccc(N)c3)c(O)c2n1 (stereo not drawn) [Example 35] | 0.025 (≈ 0.0442 µM) | 1.56 (≈ 2.76 µM) | 1.56 (≈ 2.76 µM) | 1.56 (≈ 2.76 µM) | 6.25 (≈ 11 µM) | 0.78 (≈ 1.38 µM)
28 | Cc1ccc2ncc(C(=O)NC(C(=O)N[C@@H]3C(=O)N4[C@@H]3SC(C)(C)[C@@H]4C(=O)O)c3cccc(N)c3)c(O)c2n1 (stereo partly drawn) [Example 19] | 0.025 (≈ 0.0454 µM) | 0.78 (≈ 1.42 µM) | 0.78 (≈ 1.42 µM) | 1.56 (≈ 2.83 µM) | 6.25 (≈ 11.4 µM) | 0.78 (≈ 1.42 µM)
29 | CCNc1ccc(C(NC(=O)c2cnc3cccnc3c2O)C(=O)N[C@@H]2C(=O)N3[C@@H]2SC(C)(C)[C@@H]3C(=O)O)cc1 (stereo partly drawn) [Example 10] | 0.05 (≈ 0.0886 µM) | 0.78 (≈ 1.38 µM) | 1.56 (≈ 2.76 µM) | 1.56 (≈ 2.76 µM) | 12.5 (≈ 22.1 µM) | 0.78 (≈ 1.38 µM)
30 | COc1cnc2c(O)c(C(=O)NC(C(=O)NC3C(=O)N4C3SC(C)(C)C4C(=O)O)c3cccc(N)c3)cnc2n1 (stereo not drawn) [Example 39] | 0.025 (≈ 0.044 µM) | 0.78 (≈ 1.37 µM) | 0.78 (≈ 1.37 µM) | 0.78 (≈ 1.37 µM) | 6.25 (≈ 11 µM) | 0.78 (≈ 1.37 µM)
31 | CC(=O)Nc1cccc([C@@H](NC(=O)c2cnc3ccccc3c2OC(=O)C(C)(C)C)C(=O)N[C@@H]2C(=O)N3[C@@H]2SC(C)(C)[C@@H]3C(=O)O)c1 [Example 7, D-α-(4-pivaloyloxyquinoline-3-carboxamido)-m-acetylaminobenzylpenicillin] | 0.2 (≈ 0.302 µM) | 6.25 (≈ 9.44 µM) | 6.25 (≈ 9.44 µM) | 0.78 (≈ 1.18 µM) | 6.25 (≈ 9.44 µM) | 3.13 (≈ 4.73 µM)
32 | CC1(C)SC2C(NC(=O)C(NC(=O)c3cnc4cncnc4c3O)c3cccc(N)c3)C(=O)N2C1C(=O)O (stereo not drawn) [Example 33] | 0.025 (≈ 0.0465 µM) | 0.78 (≈ 1.45 µM) | 0.78 (≈ 1.45 µM) | 1.56 (≈ 2.9 µM) | 6.25 (≈ 11.6 µM) | 0.78 (≈ 1.45 µM)
